The values below come from PubChem BioAssay (NCI).

Test in all cases: NCI anticancer screen, dose series, 48 h
In test [1] the test system is BT-549 breast.
The subject of test [2] is CAKI-1 renal.
In test [3] the test system is MALME-3M melanoma.
For test [4], the system named is MDA-MB-231 breast.
The test system of test [5] is OVCAR-4 ovarian.
The subject of test [6] is RPMI-8226 leukemia.
Test [7] relates to SF-295 CNS.
Test [8] deals with SK-MEL-28 melanoma.
The subject of test [9] is SK-MEL-5 melanoma.
The subject of test [10] is UACC-257 melanoma.

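Cultured in 96-well plates, cells were exposed to test compound for 48 hours across five concentrations. GI50: concentration for 50% inhibition of growth. TGI: total growth inhibition.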

On to `O=C1OC(c2ccc(O)cc2)(c2ccc(O)cc2)c2cccc3cccc1c23`, for which the GI50 in test [1] is 1.26 µM; in test [2] it was 18.1 µM; in test [3], 20 µM; in test [4], 14.2 µM; in [5] it was 0.18 µM; in test [6], 18.6 µM. The GI50 was 15 µM in test [7], 14.3 µM in [8], 16.1 µM in test [9] and 13.8 µM in test [10]. The TGI in [1] worked out at 4.01 µM; in test [2], 44.6 µM; in [3] it was 43.4 µM; in test [4], 35.5 µM; in [5], 17.4 µM; in test [6], 50.5 µM. The TGI in test [7] was 31.8 µM; in test [8] it was 29.5 µM; in test [9], 31.3 µM; in test [10], 27.8 µM.

As to `CC(CS(=O)(=O)Cc1ccccc1)C(N)=O` (stereo not given), the TGI in test [1], in [2], in test [3], in test [4], in test [5] and in [6] was above 100 µM in each case. In addition, the TGI in [7], in [8], in test [9] and in test [10] was above 100 µM each time.

In the case of `COc1cc(C2C3=C(COC3=O)N(CCO)c3cc4c(cc32)CCC4)cc(OC)c1O` (stereo not given), the GI50 in test [1] was 0.68 µM; in test [2] it was 0.508 µM; in test [3], 0.104 µM; in test [4], 0.76 µM; in [5] it was 0.278 µM; in test [6], 0.838 µM. The GI50 was 0.0973 µM in test [7], 0.213 µM in [8] and 0.102 µM in test [9]. In addition, the TGI is above 9.16 µM in test [1]; above 26.3 µM in [2]; above 32.5 µM in test [3]; above 32.5 µM in test [4]; above 32.5 µM in test [5]; above 32.5 µM in test [6]. For the same molecule, the TGI in test [7] is 0.354 µM; in test [8] it was above 32.5 µM; in test [9], above 11 µM; in test [10], above 32.5 µM.

With `O=C1c2cccnc2C(=O)c2c1c(C(=O)OCCCN1CCOCC1)c1ccccn21`, the GI50 in test [1] is 0.0375 µM; in test [2] it was below 0.01 µM; in [3] it was 0.0125 µM; in test [4], 1.32 µM; in test [5], 0.94 µM; in [6] it was 0.0252 µM. For the same molecule, the GI50 in test [7] is 0.0167 µM; in test [8] it was 0.0658 µM; in test [9], below 0.0114 µM; in test [10] it was 0.0182 µM. The TGI in [1] was 1.82 µM; in test [2], 0.0509 µM; in test [3] it was 1.71 µM; in test [4] it was 15.8 µM; in test [5], 3.99 µM; in test [6] it was 1.13 µM. Moreover, the TGI is 0.0698 µM in test [7], 4.57 µM in test [8], 0.0951 µM in [9] and 0.0758 µM in test [10].

On to `CC1(CC(=O)O)OC2CCCCCC2O1` (stereo not given) (tested in a mixture with another compound), for which the TGI in test [1], in test [2], in test [3], in test [4], in [5] and in test [6] was above 100 µM in each case. Further, the TGI in test [7], in [8], in test [9] and in [10] was above 100 µM in each case.

For the molecule `Cc1nn(-c2ccccc2)c2c1C1C(=C(c3ccc(Cl)cc3)N2)C(=O)Nc2ccccc21` (stereo not given), the GI50 in [1] is 2.81 µM; in test [2], 3.04 µM; in test [3] it was 2.68 µM; in [4], 2.41 µM; in [5], 5.33 µM; in test [6], 2.17 µM. For the same molecule, the GI50 in test [7] is 2.49 µM; in [8], 4.65 µM; in test [9], 1.88 µM; in test [10], 4.33 µM. Also, the TGI is 9.32 µM in test [1]; above 100 µM in test [2]; 21.2 µM in test [3]; 8.74 µM in test [4]; above 100 µM in test [5]; 4.77 µM in test [6]. Also, the TGI in test [7] was 7.77 µM; in test [8], 62.1 µM; in [9], 4.31 µM; in [10], 25.4 µM.

Regarding `O=C(Cc1nc2ccc(C(=O)c3ccccc3)cc2[nH]c1=O)C(=O)Nc1ccccc1[N+](=O)[O-]`, the TGI in [1], in test [2], in test [3], in test [4], in test [5] and in [6] was above 100 µM in each case. The TGI in test [7], in test [8], in [9] and in [10] was above 100 µM in each case.

Regarding `CC[C@]12C=CCN3CC[C@]4(C(=C(C(=O)OC)C1)Nc1cc(O)ccc14)[C@@H]32`, the GI50 in test [1] was 20.6 µM; in test [2], 14.1 µM; in test [3], 11.8 µM; in test [4] it was 13.8 µM; in test [5], 22 µM; in [6], 26.2 µM. In addition, the GI50 in test [7] was 16.7 µM; in test [8], 17 µM; in test [9] it was 14.8 µM; in test [10], 25.8 µM. Further, the TGI in [1] came to 41.9 µM; in test [2], 37.1 µM; in test [3] it was 26.3 µM; in test [4], 41.6 µM; in [5], 76.4 µM; in test [6], 79.8 µM. In addition, the TGI in [7] was 33.1 µM; in test [8], 42.5 µM; in test [9] it was 28.3 µM; in [10], 85.9 µM.

On to `CN1CCCC1c1cccnc1.O=C(O)c1ccccc1O.O=C([O-])c1ccccc1[OH2+].O=C([O-])c1ccccc1[OH2+].O=C([O-])c1ccccc1[OH2+].[Mn+2]` (stereo not given), for which the GI50 in test [1] was 39.7 µM; in test [2], above 100 µM; in test [3] it was 17.8 µM; in test [4], above 100 µM; in test [5] it was above 100 µM; in test [6] it was 92.7 µM. Moreover, the GI50 in test [7] is above 100 µM; in test [8], above 100 µM; in test [9], above 100 µM; in test [10], 37.6 µM. Further, the TGI in test [1] is above 100 µM; in test [2] it was above 100 µM; in test [3], 52.2 µM; in test [4], above 100 µM; in test [5], above 100 µM; in test [6] it was above 100 µM. Also, the TGI in test [7], in test [8], in [9] and in test [10] was above 100 µM in each case.

As for `O=C(N[C@@H]1CCCc2ccccc21)[C@H](CCC(=O)N1CCN(C2CCCCC2)CC1)N1C(=O)[C@@H](N2C(=O)OC[C@@H]2c2ccccc2)[C@H]1/C=C/c1ccccc1`, the GI50 is 1.76 µM in [1]; 1.92 µM in [2]; 1.63 µM in [3]; 1.89 µM in [4]; 3.11 µM in test [5]; 1.54 µM in [6]. For the same molecule, the GI50 in [7] is 2.34 µM; in [8] it was 1.77 µM; in test [9] it was 1.37 µM; in [10], 1.49 µM. For the same molecule, the TGI came out at 3.92 µM in test [1]; 6.8 µM in [2]; 3.15 µM in [3]; 4.12 µM in test [4]; 32 µM in [5]; 5.34 µM in test [6]. Further, the TGI in test [7] was found to be 7.57 µM; in [8] it was 3.67 µM; in [9], 2.71 µM; in test [10] it was 3.36 µM.

On to `CC1(C)N=C(N)N=C(N)N1c1ccc(OCC(=O)Nc2cccc(S(=O)(=O)F)c2)c(Cl)c1`, for which, in [1], the GI50 is above 100 µM. Moreover, the TGI in test [1] was above 100 µM; in [2], above 100 µM; in test [3], above 19.9 µM; in [4], above 100 µM; in test [5], above 100 µM; in [6], above 100 µM. The TGI was above 73.5 µM in test [7], above 100 µM in test [8], above 91.9 µM in test [9] and above 14.2 µM in [10].

Regarding `CO[C@H]1C=C[C@]23c4cc5c(cc4CN(CC2O)[C@@H]3C1)OCO5` (stereo not given in full), the TGI in test [1] was 13.7 µM; in test [2] it was above 100 µM; in test [3] it was 20.4 µM; in [4], 34.6 µM; in test [5] it was 11.3 µM; in test [6], above 100 µM. Besides, the TGI in test [7] is 4.14 µM; in [8], 54.9 µM; in [9], 17.8 µM; in test [10], 42.8 µM.
